Measured values: article PMC9497675, “Explore the Interaction between Ellagic Acid and Zein Using Multi-Spectroscopy Analysis and Molecular Docking” (Foods, 2022)

Molecular target: T1, zein
T1 construct: gene alpha-zein
Experiment: intrinsic fluorescence quenching (ex […] nm), modified Stern-Volmer double-log plot
Assay type: binding, Zea mays
Conditions: 298 K; 0.05 mg/mL zein in 70% aqueous ethanol; EA stock in 50% methanol; n = 1.2786; apparent constant

- KA (L/mol): 9.47 × 10^2
Compound: O=c1oc2c(O)c(O)cc3c(=O)oc4c(O)c(O)cc1c4c23 [EA, ellagic acid]
